Laboratory results taken from patent publication US20020193627A1, “Novel crystalline disodium pamidronate hydrate and process for preparing it” (priority 1999, published 2002).
Read-outs that look alike come from different tables or passages of the source.

Columns and labels:
[1] = for Stability Evaluation (Stable hydrate): form listed as stable
Method: (1) anhydrous disodium pamidronate, (2) disodium pamidronate 3˜4 hydrates prepared in the example 2(water contents 18.50%), (3) disodium pamidronate 5 hydrates (water contents 24.41%)
(1) 1.000 g 1.200 g of anhydrous disodium pamidronate was accurately weighed and 15 samples were prepared.
(2) 1.000 g -1.200 g of disodium pamidronate 3˜4 hydrates was accurately weighed and I; samples were prepared.
(3) 1.000 g-1.200 g of disodium pamidronate 5 hydrates was accurately weighed and 15 samples were prepared.
(4) The tests were carried out under the following conditions:
1) Temperature (T) and humidity (relative humidity: RH): i) 24° C., 50% RH, ii) 40° C., 0% RH, iii) 40° C., 75% RH […]
i) 1 week ii) 2 weeks, iii) 3 weeks, iv) 4 weeks. v) 5 weeks
(5) After the tests were carried out, each sample was dried under reduced pressurekbelow 5 mmHg) at 150° C. for 5 hours, weighed the lost weight and determined the water contents.
The values show water contents (%).

[2] = Soft gelatine capsule storage stability by visual observation; assay type: physicochemical; settings: soft gelatine capsules (125 mg); 24° C., 50% RH; 6 months
Method: Soft gelatine capsules(125 mg) were respectively prepared from the crystalline disodium pamidronates of example 2 and comparative example by a conventional soft capsule manufacturing method. The soft capsules were stored in chamber which is controlled a constant temperature and hymidity (24° C., 50% RH) for 6 months. The stabilities of the soft capsules were tested by visual observation for the changes of properties, colors or shapes.

[3] = Thermal Gravity Assay (TGA); assay type: physicochemical
Method: In order to confirm the physical properties of 3˜4 hydrates prepared in the example 2, the lattice distances (d-values) and relative line sensitivities of X-ray diffraction patterns were measured on the conditions of step sizes 0.012 from 2 theta 5 to 2 theta 50, scan velocity 3.000 and time 2.000 by using Rigaku D/Max-IIIB X-ray Diffractometer (XRD). The test results were shown on FIG. 1a and FIG. 1b. Thermal Gravity Assay for 3˜4 hydrates (TGA data) was carried out by using TA Instruments Model 2950 TGA Thermal Analyzer (TGA). The lost weight of the 3˜4 hydrtes was measured by gradually raising the temperature of 10° C. per minute from room temperature to 500° C. The results were shown on FIG. 2.

anhydrous disodium pamidronate
behaviour of water contents on storage ([1]; 24° C. 50% RH): absorbed water
time after which converted to 3˜4 hydrates ([1]; 24° C. 50% RH): 4 weeks
behaviour of water contents on storage ([1]; 24° C., 0% RH): maintained stably
water contents ([1]; 24° C., 50% RH, 1 week): 1.45%
water contents ([1]; 24° C., 50% RH, 2 weeks): 8.42%
water contents ([1]; 24° C., 50% RH, 3 weeks): 13.34%
water contents ([1]; 24° C., 50% RH, 4 weeks): 17.19%
water contents ([1]; 24° C., 50% RH, 5 weeks): 17.84%
time after which converted to 3˜4 hydrates ([1]; 40° C. 75% RH): 3 weeks
water contents ([1]; 40° C., 0% RH, 1 week): 0.02%
water contents ([1]; 40° C., 0% RH, 2 weeks): 0.06%
water contents ([1]; 40° C., 0% RH, 3 weeks): 0.05%
water contents ([1]; 40° C., 0% RH, 4 weeks): 0.08%
water contents ([1]; 40° C., 0% RH, 5 weeks): 0.10%
Stability Evaluation (Stable hydrate) ([1]; 40° C., 0% RH): anhydrous form
water contents ([1]; 40° C., 75% RH, 1 week): 7.14%
water contents ([1]; 40° C., 75% RH, 2 weeks): 14.39%
water contents ([1]; 40° C., 75% RH, 3 weeks): 18.20%
water contents ([1]; 40° C., 75% RH, 4 weeks): 18.24%
water contents ([1]; 40° C., 75% RH, 5 weeks): 18.22%

NCCC(O)(P(=O)([O-])O)P(=O)([O-])O.[Na+].[Na+] [comparative example, disodium 3-amino-1-hydroxypropane-1,1-diphosphonate]
changes of properties, colors or shapes of soft capsules by visual observation [2]: changed in shapes (partly collapse by releasing water), colors and dewy phenomena on inner parts of the capsules
behaviour of water contents on storage ([1]; 24° C. 50% RH): lost from 1 week
water contents ([1]; 24° C., 50% RH, 1 week): 19.14%
water contents ([1]; 24° C., 50% RH, 2 weeks): 18.79%
water contents ([1]; 24° C., 50% RH, 3 weeks): 18.29%
water contents ([1]; 24° C., 50% RH, 4 weeks): 18.43%
water contents ([1]; 24° C., 50% RH, 5 weeks): 18.37%
behaviour of water contents on storage ([1]; 40° C. 0% RH): maintained stably
behaviour of water contents on storage ([1]; 40° C. 75% RH): maintained stably
water contents ([1]; 40° C., 0% RH, 1 week): 24.44%
water contents ([1]; 40° C., 0% RH, 2 weeks): 24.19%
water contents ([1]; 40° C., 0% RH, 3 weeks): 23.52%
water contents ([1]; 40° C., 0% RH, 4 weeks): 23.01%
water contents ([1]; 40° C., 0% RH, 5 weeks): 22.21%
Stability Evaluation (Stable hydrate) ([1]; 40° C., 0% RH, listed as 5 hydrate): 5 hydrate
water contents ([1]; 40° C., 75% RH, 1 week): 24.02%
water contents ([1]; 40° C., 75% RH, 2 weeks): 24.43%
water contents ([1]; 40° C., 75% RH, 3 weeks): 24.35%
water contents ([1]; 40° C., 75% RH, 4 weeks): 23.65%
water contents ([1]; 40° C., 75% RH, 5 weeks): 23.55%
Stability Evaluation (Stable hydrate) ([1]; 40° C., 75% RH, listed as 5 hydrate): 5 hydrate

NCCC(O)(P(=O)([O-])O)P(=O)([O-])O.[Na+].[Na+] [Example 2, crystalline disodium pamidronate 3˜4 hydrates]
temperature from which water loss begins (TGA) ([3]; 10° C. per minute from room temperature to 500° C.): 50 °C
weight loss (TGA) ([3]; till 221.11° C., 14.26%+3.845%, error of measurement ±3%): 18.105%
changes of properties, colors or shapes of soft capsules by visual observation [2]: No changes are observed
water contents ([1]; 24° C., 50% RH, 1 week): 18.19%
water contents ([1]; 24° C., 50% RH, 2 weeks): 18.03%
water contents ([1]; 24° C., 50% RH, 3 weeks): 18.04%
water contents ([1]; 24° C., 50% RH, 4 weeks): 18.31%
water contents ([1]; 24° C., 50% RH, 5 weeks): 18.28%
Stability Evaluation (Stable hydrate) ([1]; 24° C., 50% RH): 3-4 hydrate
behaviour of water contents on storage ([1]; 40° C. 0% RH): maintained stably
behaviour of water contents on storage ([1]; 40° C. 75% RH): maintained stably
water contents ([1]; 40° C., 0% RH, 1 week): 17.12%
water contents ([1]; 40° C., 0% RH, 2 weeks): 17.20%
water contents ([1]; 40° C., 0% RH, 3 weeks): 17.37%
water contents ([1]; 40° C., 0% RH, 4 weeks): 17.10%
water contents ([1]; 40° C., 0% RH, 5 weeks): 17.22%
Stability Evaluation (Stable hydrate) ([1]; 40° C., 0% RH): 3-4 hydrate
water contents ([1]; 40° C., 75% RH, 1 week): 17.20%
water contents ([1]; 40° C., 75% RH, 2 weeks): 17.66%
water contents ([1]; 40° C., 75% RH, 3 weeks): 17.45%
water contents ([1]; 40° C., 75% RH, 4 weeks): 17.15%
water contents ([1]; 40° C., 75% RH, 5 weeks): 17.26%
Stability Evaluation (Stable hydrate) ([1]; 40° C., 75% RH): 3-4 hydrate
overall stability among disodium pamidronate hydrates ([1]; all storage conditions): structurally the most stable
